“And” between values parts separate entries of the source, which are not always exact repeats. Identical values can stand only once. Inconclusive results are not listed. The source made the active and inactive calls.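 The calls were made as follows: active = fitted half-maximal concentration of signal decrease at or below twice the sample's top tested concentration; inconclusive = flat curve between -70 and -30 percent, or poor fit; inactive = flat within 30 percent, signal rise, or potency above limit.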
Target: T. gondii ME49Luc in IFN-y HeLa, luciferase, 72 h
Assay: inhibitors of Toxoplasma growth in IFN-γ-primed HeLa – cell-based, ME49Luc, luciferase, 72 h, dose response (AID 1259418)

| Structure (SMILES) | AC50 |
| --- | --- |
| N#C[C@@H]1[C@H](c2ccc(-c3cccc(F)c3)cc2)[C@H](CO)N1C(=O)NC1CCCC1 | 15.1 µM and 4.56 µM |
| COc1ccc(-c2nc(CN(c3ccccc3OC)S(=O)(=O)c3ccc(C)cc3)c(C)o2)cc1 | 5.3 µM |
| Cc1ccc(CNC2=NCCNC23CCN(S(=O)(=O)c2cc(C)cc(C)c2)CC3)cc1 | 23.4 µM |
| C1=C(c2ccccc2)CC(c2ccccc2)=NN=C1c1ccccc1 | 15.6 µM |
| O=C(c1ccc(F)cc1)N1CC(=O)N2[C@@H](CO)[C@@H](c3ccc(C#CCC4CCCC4)cc3)[C@@H]2C1 | 23.5 µM |
| CS(=O)(=O)N1CC(=O)N2[C@H](C1)[C@@H](c1ccc(C#CCC3CCCC3)cc1)[C@@H]2CO | 19.2 µM |
| CN(C[C@H]1N[C@@H](CO)[C@@H]1c1ccc(C2=CCCC2)cc1)C(=O)c1cccc(F)c1 | 15.2 µM and 3.49 µM |
| O=C(Nc1ccccc1F)N1CCCCN2[C@@H](CO)[C@@H](c3ccc(/C=C/c4ccccc4)cc3)[C@@H]2C1 | 22 µM |
| O=S(=O)(c1ccc2c(c1)CCCC2)N1CCC2(CC1)NCCN=C2NCc1ccc2c(c1)OCO2 | 11.1 µM |
| Cc1ccccc1Cn1c(CN2CCC(C(=O)NCCCN3CCCC3)CC2)cc2ccccc21 | 18.2 µM |
| COc1ccc(-c2nc(NCc3cccnc3)c3ccccc3n2)cc1 | 21.7 µM |
| COc1ccc(-c2nc(CN(c3ccccc3)S(=O)(=O)c3ccccc3)c(C)o2)cc1OC | 3.77 µM |
| COCC1CN(C(=O)c2ccccc2F)Cc2cnn(CC3CC3)c21 (configuration not stated) | 35.8 µM |
| COc1ccccc1C(=O)Nc1ccc(-c2nc(-c3ccc(C)cc3)co2)cc1 | 19.1 µM |
| COc1ccccc1-c1nc(C)c(-c2ccc(SCc3c(F)cccc3Cl)nn2)s1 | 38.4 µM |
| Cc1c(Cl)cccc1NC(=O)CN1CCC2(CC1)N=C(c1cccc(F)c1)C(=O)N2 | > 39 µM (inactive) |
| O=S(=O)(c1ccc2c(c1)CCCC2)N1CCC2(CC1)NCCN=C2NC1CCCCCC1 | 9.95 µM |
| O=C(NCCc1csc(-c2ccccc2)n1)C1CCN(C(=O)Cc2cccc(F)c2)CC1 | 2.76 µM |
| O=C(CC1N=C2c3ccccc3N=C(SCc3ccccc3F)N2C1=O)NCc1cccs1 (configuration not stated) | 18.4 µM |
| COc1cccc(NC(=O)N2CC(=O)N3[C@H](CO)[C@H](c4ccc(C#CCC5CCCC5)cc4)[C@H]3C2)c1 | 12.8 µM and 10.5 µM |
| Cc1ccc(-c2cc(C(F)(F)F)nn2-c2ccc(S(N)(=O)=O)cc2)cc1 | 22.2 µM |
| O=C(C[C@H]1CC[C@H]2[C@@H](COC[C@@H](O)CN2Cc2ccc(Oc3ccccc3)cc2)O1)N1CCN(c2ccccc2)CC1 | 15.2 µM and 32.3 µM |
| Fc1cccc(CN2C[C@@H]3N[C@H](C2)C3c2ccc(/C=C/c3ccccc3)cc2)c1 (some centres not stated) | 12.1 µM and 17.5 µM |

| Structure (SMILES) | AC50 |
| --- | --- |
| COc1ccc(CNc2nc(SCc3ccc(Cl)cc3)nc3ccccc23)cc1 | 35.5 µM |
| COc1cccc(-c2ccc(C3[C@@H]4CN(S(=O)(=O)Cc5ccccc5)C[C@H]3N4)cc2)c1 (some centres not stated) | 12.3 µM and 15.7 µM |
| COc1cccc(-c2nc3c(s2)CN(S(=O)(=O)c2cccc(F)c2)CC3)c1 | 11.3 µM |
| CCOc1ccc(-c2nc3c(s2)CN(S(=O)(=O)c2cccc(F)c2)CC3)cc1 | > 39 µM (inactive) |
| COc1ccc(-c2nc(CN(c3ccccc3OC)S(=O)(=O)c3ccc(OC)cc3)c(C)o2)cc1 | 5.84 µM |
| CC(C)CC#Cc1ccc([C@@H]2[C@H](CO)N3C(=O)CN(C(=O)c4cccc(F)c4)C[C@@H]23)cc1 | 18.2 µM |
| O=C(Nc1ccc(F)cc1)N1CC(=O)N2[C@H](CO)[C@@H](c3ccc(-c4cccc(F)c4)cc3)[C@@H]2C1 | 19.9 µM |
| COc1cc([C@@H]2c3cc4c(cc3C(OC3O[C@@H]5COC(C)O[C@H]5[C@H](O)[C@H]3O)C3COC(=O)[C@@H]32)OCO4)cc(OC)c1O (some centres not stated) | > 39 µM (inactive) |
| COc1cccc(N(Cc2nc(-c3cccc(C)c3)oc2C)S(=O)(=O)c2ccc(C)cc2)c1 | 4.46 µM |
| Cc1ccc(-c2nc(CN(c3ccccc3C)S(=O)(=O)c3cccs3)c(C)o2)cc1 | 9.63 µM |
| O=C(CCC1N=C2c3ccccc3N=C(SCc3ccc(F)cc3)N2C1=O)NCCc1ccccc1 (configuration not stated) | 37.8 µM |
| CCN1CCCC1CNC(=O)C1CCN(Cc2cc3ccccc3n2Cc2ccc(F)cc2)CC1 (configuration not stated) | 21.2 µM |
| Cc1ccccc1-c1ccc(C2[C@@H]3CN(C(=O)C4CCOCC4)C[C@H]2N3)cc1 (some centres not stated) | 26.4 µM |
| COc1cccc(C#Cc2ccc([C@@H]3[C@@H](C#N)N[C@@H]3CO)cc2)c1 | 38.4 µM |
| COc1ccc(C#Cc2ccc([C@H]3[C@H]4CN(C(=O)NC(C)C)CC(=O)N4[C@H]3CO)cc2)cc1 | 18.5 µM |
| Cc1cccc(-c2nc(CSc3nc4c(c(=O)[nH]3)CN(Cc3ccccc3)CC4)c(C)o2)c1 | > 39 µM (inactive) |
| CC[C@H]1CN2CCC1C[C@@H]2[C@@H](O)c1ccnc2ccc(OC)cc12 (some centres not stated) | 2.25 µM |
| COc1cccc(CNC2=NCCNC23CCN(S(=O)(=O)c2ccc4c(c2)CCCC4)CC3)c1 | 16.3 µM |
| Cc1cc(C)c(S(=O)(=O)N2CCC[C@@H]2C(=O)NCCc2csc(C)n2)c(C)c1 | 31.9 µM |
| CCc1nc(OCC(=O)N(C)c2ccccc2)c2ccccc2n1 | 24.4 µM |
| Cc1ccc(NC(=O)CN2CCC3(CC2)N=C(c2cccc(Cl)c2)C(=O)N3)cc1 | 28 µM |
| N#C[C@@H]1[C@@H](c2ccc(C3=CCCCC3)cc2)[C@@H](CO)N1S(=O)(=O)c1ccccc1 | > 39 µM (inactive) and 5.52 µM |
| COc1ccc(NC(=O)CN2CCC3(CC2)N=C(c2cccc(Cl)c2)C(=O)N3)cc1 | 18.2 µM |

| Structure (SMILES) | AC50 |
| --- | --- |
| CCCCC(=O)N1CCC2(CC1)Nc1ccc(Cl)cc1-n1cccc12 | > 39 µM (inactive) |
| COc1cccc(S(=O)(=O)N2CCCCN3[C@H](C2)[C@@H](c2ccc(C#CCC(C)C)cc2)[C@@H]3CO)c1 | 15.3 µM |
| CC(C)n1c(C(=O)Nc2cccc(F)c2)nc2c1CCN(Cc1ccccc1)C2 | 9.4 µM |
| Cc1ccc(C)c(NC(=O)N2CCN(Cc3nc(-c4cccc(Cl)c4)oc3C)CC2)c1 | > 39 µM (inactive) |
| COc1ccc(-c2nc(NCCN(C)C3CCCCC3)c3ccccc3n2)cc1 | 3.36 µM |
| O=C(NCCCN1CCCC1)C1CCN(Cc2cc3ccccc3n2Cc2ccccc2)CC1 | 23 µM |
| COc1cccc(S(=O)(=O)N2CCCCN3[C@H](CO)[C@H](c4ccc(C#CCC(C)C)cc4)[C@H]3C2)c1 | 16.5 µM and 1.89 µM and 10.4 µM |
| CC(C)(Cc1ccc2ccccc2c1)NC[C@@H](O)COc1cccc(Cl)c1C#N | 13.3 µM |
| COc1ccc(-c2nc(NCCCN3CCC(N4CCCCC4)CC3)c3ccccc3n2)cc1 | 31.3 µM |
| O=C(CCC1N=C2c3ccccc3N=C(SCc3ccc(F)cc3)N2C1=O)NC1CCCCC1 (configuration not stated) | 16.2 µM |
| Cc1ccc(S(=O)(=O)N2CCC3(CC2)NCCN=C3NCc2ccc(F)c(Cl)c2)c(C)c1 | 6.21 µM |
| CCc1nc(OCC(=O)Nc2ccccc2)c2ccccc2n1 | 27.7 µM |
| CCOc1ccc(-c2nc(CN3CCN(C(=O)NC4CCCC4)CC3)c(C)o2)cc1 | 29.5 µM |
| CCCc1ccc(S(=O)(=O)N2CCC[C@@H]2C(=O)NCCc2csc(-c3ccccc3)n2)cc1 | 3.78 µM and 16 µM |
| CCCCc1ccc(Nc2ncnc3c2cnn3-c2ccc(C)cc2C)cc1 | 8.05 µM |
| O=C(c1ccc(F)cc1)N1CC(=O)N2[C@@H](CO)[C@H](c3ccc(C#CCC4CCCC4)cc3)[C@@H]2C1 | 17.9 µM and 10.9 µM |
| CCCC#Cc1ccc([C@H]2[C@H](CO)N3C(=O)CN(C(=O)Nc4cccc(F)c4)C[C@@H]23)cc1 | 10.4 µM |
| CCc1ccc(S(=O)(=O)Nc2ccc(-c3nc(-c4ccc(C)cc4C)co3)cc2)cc1 | 8.52 µM |
| CS(=O)(=O)N1CCc2sc(C(=O)Nc3ccc(Cl)cc3)cc21 | 3.36 µM |
| COc1ccccc1C(=O)Nc1ccc(-c2nc(-c3ccc(C)cc3C)co2)cc1 | 9.34 µM and 18.2 µM |
| Cc1nc(OCC(=O)Nc2c(C)cccc2C)c2ccccc2n1 | 28.8 µM |
| N#Cc1cccc(-c2ccc3c(c2)[C@@H]2[C@@H](CCN2C(=O)c2ccccc2F)[C@@H](CO)N3)c1 | 23.3 µM |
| OC[C@@H]1Nc2ccc(-c3cccc(F)c3)cc2[C@@H]2[C@H]1CCN2Cc1ccc(F)cc1 | 18.5 µM |

| Structure (SMILES) | AC50 |
| --- | --- |
| CCc1ccc(S(=O)(=O)N2CCC3(CC2)NCCN=C3NCc2ccccc2)cc1 | 21.8 µM |
| O=C(Cc1ccncc1)N1CCCCN2[C@H](C1)[C@@H](c1ccc(C#Cc3ccccc3F)cc1)[C@@H]2CO | 5.02 µM |
| Cc1ccc(Nc2nc(-c3ccccc3Cl)nc3ccccc23)cc1 | 14.2 µM |
| CCOc1ccc(N(Cc2nc(-c3ccc(OC)cc3)oc2C)S(=O)(=O)c2ccccc2)cc1 | 3.96 µM and 3.81 µM |
| CCOc1ccc(-c2nc(CN3CCN(C(=O)Nc4cc(OC)ccc4OC)CC3)c(C)o2)cc1 | 38 µM |
| Cn1nc2c(c1C(=O)Nc1ccc(N3CCCCC3)c(F)c1)CCCC2 | 15.9 µM |
| O=C(NCCc1csc(-c2ccccc2)n1)[C@H]1CCCN1C(=O)CCc1ccccc1 | > 39 µM (inactive) |
| COc1cccc(N(Cc2nc(-c3ccccc3)oc2C)S(=O)(=O)c2ccccc2C)c1 | 5.46 µM |
| COc1ccccc1CNC(=O)CCC1N=C2c3ccccc3N=C(SCc3cccc(F)c3)N2C1=O (configuration not stated) | > 39 µM (inactive) |
| Cc1cccc(-c2ccc([C@@H]3[C@@H](CO)N4C(=O)CN(C(=O)c5ccc6c(c5)OCO6)C[C@H]34)cc2)c1 | 18.8 µM |
| O=C(c1cccn2c(-c3ccc(F)cc3)nnc12)N1CCC(O)(c2ccc(Cl)cc2)CC1 | 25.4 µM |
| COc1cccc(NC(=O)N2CC(=O)N3[C@@H](CO)[C@H](c4ccc(C#CCC5CCCC5)cc4)[C@@H]3C2)c1 | 20 µM |
| Cc1cc(C)c(S(=O)(=O)N2CCC3(CC2)NCCN=C3NCc2ccc3c(c2)OCO3)cc1C | 9.23 µM |
| COc1ccc(-c2nc(C)c(-c3ccc(SCc4cccc(C(F)(F)F)c4)nn3)s2)cc1 | > 39 µM (inactive) |
| COc1ccc(-c2nc(Cn3nnc(-c4nc(-c5ccncc5)no4)c3C)c(C)o2)cc1 | > 39 µM (inactive) |
| Cc1nc(CCNC(=O)C2CCN(S(=O)(=O)c3ccc(C(C)(C)C)cc3)CC2)cs1 | 31.4 µM |
| O=C(c1ccc(-n2nc(C(F)(F)F)c3c2CCCC3)cc1)N1CCN(C2CCCCC2)CC1 | 10.1 µM and > 39 µM (inactive) |
| COc1ccc(-c2nc(NCCCN3CCN(Cc4ccccc4)CC3)c3ccccc3n2)cc1 | > 39 µM (inactive) |
| Cc1nc(CCNC(=O)[C@H]2CCCN2S(=O)(=O)c2ccccc2)cs1 | 32.3 µM |
| COc1cccc(-c2nc(Cn3c(=O)c4c(C)cc(C)nc4n(-c4ccccc4)c3=O)c(C)o2)c1OC | > 39 µM (inactive) |
| O=C(c1ccc(F)cc1)N1CC(=O)N2[C@H](C1)[C@@H](c1ccc(C#CCC3CCCC3)cc1)[C@@H]2CO | 20.4 µM and 10.1 µM |
| COc1cccc(NC(=O)N2CCN(Cc3nc(-c4ccc(C)cc4)oc3C)CC2)c1 | 22 µM |
| COc1ccc(-c2nc(NCCCN3CCCCC3C)c3ccccc3n2)cc1 (configuration not stated) | 13.9 µM |
